Measurements published in US20170107207A1, “AMINOPYRAZOLONE DERIVATIVE” (DAIICHI SANKYO COMPANY, LIMITED, priority 2014, published 2017).

Legend:
ACHN = test: Cell growth inhibition test, ACHN; assay type: cell-based; conditions: Homo sapiens, 72 h, Kidney cancer, 3 days, CellTiter-Glo
Experimental: (§1) A cell growth inhibition test was carried out by treating a cultured cancer cell line with a test compound for a given period and then counting the number of viable cells by CellTiter-Glo Luminescent Cell Viability Assay (manufactured by Promega Corp.).
(§2) The following cells were inoculated to a 384-well plate containing the compound prepared in advance at predetermined concentrations. […]
(§3) The cells thus inoculated were cultured at 37° C. for 3 days under 5% CO2. […] Then, luminescence intensity was measured using a plate reader.
(§4) The number of viable cells and luminescence intensity have been confirmed to correlate with each other. Therefore, the rate of cell growth was calculated according to the following expression: Rate of cell growth (T/C %) of a test compound-supplemented well=100×[(B−C)/(A−C)] wherein A represents the luminescence intensity (final culture date) of a test compound-free well; B represents the luminescence intensity (final culture date) of a test compound-containing well; and C represents the luminescence intensity (day of cell inoculation) of a well at the start of contact of the cells with the test compound.
(§5) T/C % at the concentration of each of the serially diluted test compounds was determined. […]

786-0 = test: Cell growth inhibition test, 786-0; assay type: cell-based; conditions: Homo sapiens, 72 h; 786-0, Kidney cancer, 3 days, CellTiter-Glo
Experimental: as §1, §2, §3, §4, §5

A-498 = test: Cell growth inhibition test, A-498; assay type: cell-based; conditions: Homo sapiens, A498, 72 h; A-498, Kidney cancer, 3 days, CellTiter-Glo
Experimental: as §1, §2, §3, §4, §5

RL952 = test: Cell growth inhibition test, RL952; assay type: cell-based; conditions: Homo sapiens, RL95-2, 72 h; RL952, Endometrial cancer, 3 days, CellTiter-Glo
Experimental: as §1, §2, §3, §4, §5

DU 145 = test: Cell growth inhibition test, DU 145; assay type: cell-based; conditions: Homo sapiens, 72 h; DU 145, Prostate cancer, 3 days, CellTiter-Glo
Experimental: as §1, §2, §3, §4, §5

HCC1954 = test: Cell growth inhibition test, HCC1954; assay type: cell-based; conditions: Homo sapiens, 72 h; HCC1954, Breast cancer, 3 days, CellTiter-Glo
Experimental: as §1, §2, §3, §4, §5

[1] = tested on: Lung cancer cell line COR-L23 cells; test: Antitumor test, mouse subcutaneous transplantation model, COR-L23; assay type: in vivo; conditions: COR-L23 in nude mice, 4 consecutive days, tumor measured next day
Text: (§6) In vivo test of test compound: Antitumor test using mouse subcutaneous transplantation model
Lung cancer cell line COR-L23 cells were dissociated from a culture flask by trypsin treatment, then suspended in an RPMI1640 medium containing 10% FBS, and then centrifuged to remove the supernatant. The cells were washed with this medium twice and then suspended in PBS. The cell suspension was subcutaneously transplanted at a dose of 5×10^6 cells/mouse to the right axillary regions of 6-week-old nude mice (BALB/cAJc1-nu/nu, CLEA Japan, Inc.). The test was conducted by using cancer-bearing mice having an estimated tumor volume (major axis×minor axis×minor axis/2) of 100 to 150 mm3 and grouping the cancer-bearing mice without significant difference in average estimated tumor volume from a negative control group. The compound of Example 113 was suspended in solvent (EtOH/DMA/Solutol HS-15/PEG400/5% HMPC). The suspension was orally administered to each mouse once a day (QD) at a dose of 75, 150, or 300 mg/kg for 4 consecutive days. On the next day, the tumor sizes were measured.
(§7) The rate of tumor growth inhibition was also calculated in this test according to the following expression and is shown in a table.
(§8) Rate of tumor growth inhibition (%)=100−(Average value of the tumor volumes of the test compound administration group)/(Average value of the tumor volumes of the vehicle administration group)×100.

[2] = tested on: Skin cancer cell line A375 cells; test: Antitumor test, mouse subcutaneous transplantation model, A375; assay type: in vivo; conditions: A375 in nude mice, 4 consecutive days, tumor measured next day
Text: as §6
Skin cancer cell line A375 cells were dissociated from a culture flask by trypsin treatment, then suspended in a DMEM medium (Life Technologies Corp.) containing 10% FBS, and then centrifuged to remove the supernatant. The cells were washed with this medium twice and then suspended in PBS. The cell suspension was subcutaneously transplanted at a dose of 3×10^6 cells/mouse to the right axillary regions of 6-week-old nude mice (BALB/cAJc1-nu/nu, CLEA Japan, Inc.). The test was conducted by using cancer-bearing mice having an estimated tumor volume (major axis×minor axis×minor axis/2) of 75 to 150 mm3 and grouping the cancer-bearing mice without significant difference in average estimated tumor volume from a negative control group. The compound of Example 113 was suspended in solvent (EtOH/DMA/Solutol HS-15/PEG400/5% HMPC). The suspension was orally administered to each mouse twice a day (BID) at a dose of 50, 100, or 200 mg/kg for 4 consecutive days. On the next day, the tumor sizes were measured.
as §7, §8

Row | Structure (SMILES) | GI50 (ACHN) [nM] | GI50 (786-0) [nM] | GI50 (A-498) [nM] | GI50 (RL952) [nM] | GI50 (DU 145) [nM] | GI50 (HCC1954) [nM] | Rate of tumor growth inhibition (%) ([1]; 75 mg/kg orally QD) | Rate of tumor growth inhibition (%) ([1]; 150 mg/kg orally QD) | Rate of tumor growth inhibition (%) ([1]; 300 mg/kg orally QD) | Rate of tumor growth inhibition (%) ([2]; 50 mg/kg orally BID) | Rate of tumor growth inhibition (%) ([2]; 100 mg/kg orally BID) | Rate of tumor growth inhibition (%) ([2]; 200 mg/kg orally BID)
1 | CCOc1ccc(Cl)cc1C(=O)NCC(C)(C)CC(=O)Nc1c([C@H](C)CN(C)C)n(C)n(-c2ccccc2)c1=O [Example 68, 5-Chloro-N-[4-({5-[(1R)-2-(dimethylamino)-1-methylethyl]-1-methyl-3-oxo-2-phenyl-2,3-dihydro-1H-pyrazol-4-yl}amino)-2,2-dimethyl-4-oxobutyl]-2-ethoxybenzamide] | 1800 | 680 | 540 | 530 | 530 | 340 |  |  |  |  |  | 
2 | CCOc1ncc(Cl)cc1C(=O)NCC(C)(C)CC(=O)Nc1c([C@H](C)CN(C)C)n(C)n(-c2ccccc2)c1=O [Example 73, 5-Chloro-N-[4-({5-[(1R)-2-(dimethylamino)-1-methylethyl]-1-methyl-3-oxo-2-phenyl-2,3-dihydro-1H-pyrazol-4-yl}amino)-2,2-dimethyl-4-oxobutyl]-2-ethoxypyridine-3-carboxamide] | 2500 | 920 | 940 | 890 | 1100 | 920 |  |  |  |  |  | 
3 | CCOc1cc(F)c(Cl)cc1C(=O)NCC(C)(C)CC(=O)Nc1c(COC)n(C)n(-c2ccccc2)c1=O [Example 113, 5-Chloro-2-ethoxy-4-fluoro-N-(4-{[5-(methoxymethyl)-1-methyl-3-oxo-2-phenyl-2,3-dihydro-1H-pyrazol-4-yl]amino}-2,2-dimethyl-4-oxobutyl)benzamide] | 970 | 320 | 430 | 870 | 650 | 720 | 39 | 52 | 81 | 19 | 61 | 86
